Data published in the supplement of paper PMC10307832.

How the values were obtained:
Test in all cases: relative viability (nuclei count vs DMSO), 5 days (fraction); higher = more cells survive
BI-D1870 + Trametinib = compound: CC(C)CCN1c2nc(Nc3cc(F)c(O)c(F)c3)ncc2N(C)C(=O)C1C [BI-D1870] + CC(=O)Nc1cccc(-n2c(=O)n(C3CC3)c(=O)c3c(Nc4ccc(I)cc4F)n(C)c(=O)c(C)c32)c1 [Trametinib] (partner 0.02 µM)
Summary of the method: (§1)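 Dosing by pin tool came one day after lung cancer cell lines were seeded in 1536-well plates, using either one drug or a fixed anchor-drug dose plus five library-drug doses (not always all listed) in √10 steps. After 5 days, nuclei were counted on 4× images. Relative viability is treated-well nuclei count divided by vehicle-well nuclei count, and values are medians of duplicate plates.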

BI-D1870 + Alpelisib = compound: CC(C)CCN1c2nc(Nc3cc(F)c(O)c(F)c3)ncc2N(C)C(=O)C1C [BI-D1870] + Cc1nc(NC(=O)N2CCC[C@H]2C(N)=O)sc1-c1ccnc(C(C)(C)C(F)(F)F)c1 [Alpelisib] (partner 2 µM)
Summary of the method: as §1

BI-D1870 + Phenformin = compound: CC(C)CCN1c2nc(Nc3cc(F)c(O)c(F)c3)ncc2N(C)C(=O)C1C [BI-D1870] + N=C(N)NC(=N)NCCc1ccccc1 [Phenformin] (partner 250 µM)
Summary of the method: as §1

Zebularine + Vorinostat = compound: O=c1ncccn1[C@@H]1O[C@H](CO)[C@@H](O)[C@H]1O [Zebularine] + O=C(CCCCCCC(=O)Nc1ccccc1)NO [Vorinostat] (partner 1 µM)
Summary of the method: as §1

Row | Cell Line | relative viability (BI-D1870 + Trametinib; first compound 0.04 µM) | relative viability (BI-D1870 + Trametinib; first compound 0.1265 µM) | relative viability (BI-D1870 + Trametinib; first compound 0.4 µM) | relative viability (BI-D1870 + Trametinib; first compound 1.265 µM) | relative viability (BI-D1870 + Trametinib; first compound 4 µM) | relative viability (BI-D1870 + Alpelisib; first compound 0.04 µM) | relative viability (BI-D1870 + Alpelisib; first compound 0.1265 µM) | relative viability (BI-D1870 + Alpelisib; first compound 0.4 µM) | relative viability (BI-D1870 + Alpelisib; first compound 1.265 µM) | relative viability (BI-D1870 + Alpelisib; first compound 4 µM) | relative viability (BI-D1870 + Phenformin; first compound 0.04 µM) | relative viability (BI-D1870 + Phenformin; first compound 0.1265 µM) | relative viability (BI-D1870 + Phenformin; first compound 0.4 µM) | relative viability (BI-D1870 + Phenformin; first compound 1.265 µM) | relative viability (BI-D1870 + Phenformin; first compound 4 µM) | relative viability (Zebularine + Vorinostat; first compound 1 µM) | relative viability (Zebularine + Vorinostat; first compound 3.162 µM) | relative viability (Zebularine + Vorinostat; first compound 10 µM) | relative viability (Zebularine + Vorinostat; first compound 31.62 µM) | relative viability (Zebularine + Vorinostat; first compound 100 µM)
1 | NCI-H2085 | 0.547 | 0.411 | 0.576 | 0.654 | 0.524 | 0.986 | 0.886 | 0.92 | 0.938 | 0.74 | 0.806 | 0.658 | 0.676 | 0.69 | 0.52 | 0.804 | 0.835 | 0.662 | 0.755 | 0.465
2 | NCI-H2087 | 0.2 | 0.158 | 0.189 | 0.246 | 0.199 | 1.15 | 1.05 | 1.09 | 1.23 | 0.877 | 0.512 | 0.532 | 0.486 | 0.536 | 0.459 | 1.1 | 0.652 | 0.285 | 0.667 | 0.303
3 | NCI-H2126 | 0.557 | 0.598 | 0.564 | 0.546 | 0.539 | 0.749 | 0.786 | 0.781 | 0.759 | 0.723 | 0.525 | 0.493 | 0.508 | 0.53 | 0.511 | 0.664 | 0.524 | 0.853 | 0.698 | 0.474
4 | NCI-H2170 | 1 | 0.829 | 0.887 | 0.939 | 0.874 | 0.867 | 0.705 | 0.818 | 0.751 | 0.772 | 0.439 | 0.414 | 0.415 | 0.423 | 0.441 | 0.886 | 0.842 | 0.533 | 0.868 | 0.581
5 | NCI-H2228 | 0.54 | 0.367 | 0.362 | 0.56 | 0.223 | 0.669 | 0.568 | 0.876 | 0.602 | 0.35 | 0.4 | 0.417 | 0.317 | 0.348 | 0.288 | 0.825 | 0.671 | – | 0.412 | 0.377
6 | NCI-H2347 | 0.302 | 0.26 | 0.273 | 0.296 | 0.322 | 1.07 | 0.984 | 0.816 | 1.14 | 0.848 | 0.67 | 0.377 | 0.405 | 0.443 | 0.406 | 0.608 | 0.653 | 0.457 | 0.431 | 0.387
7 | NCI-H2405 | 0.683 | 0.595 | 0.586 | 0.67 | 0.601 | 0.976 | 0.766 | 0.769 | 0.789 | 0.705 | 0.436 | 0.415 | 0.386 | 0.438 | 0.398 | 1.2 | 0.981 | 0.894 | 1 | 0.826
8 | NCI-H3122 | 0.234 | 0.202 | 0.234 | 0.25 | 0.279 | 0.721 | 0.643 | 0.724 | 0.852 | 0.749 | 0.362 | 0.354 | 0.383 | 0.39 | 0.346 | 1.14 | 0.937 | 0.792 | 1.09 | 0.996
9 | PC-3 [JPC-3] | 0.751 | 0.701 | 0.632 | 0.762 | 0.576 | 1.07 | 0.971 | 1.03 | 1.13 | 1 | 0.514 | 0.485 | 0.482 | 0.498 | 0.484 | 1.01 | 0.874 | 0.785 | 0.737 | 0.658
10 | PC-14 | 0.864 | 0.534 | 0.788 | 0.498 | 0.243 | 1.15 | 0.882 | 0.913 | 0.837 | 0.862 | 0.669 | 0.521 | 0.587 | 0.627 | 0.447 | 0.756 | 0.439 | 0.214 | 0.154 | 0.0885
11 | RERF-LC-KJ | 0.901 | 0.752 | 0.863 | 0.837 | 0.693 | 0.835 | 0.76 | 0.761 | 0.688 | 0.689 | 0.422 | 0.396 | 0.407 | 0.435 | 0.285 | 0.734 | 0.738 | 0.633 | 0.762 | 0.683
12 | SK-LU-1 | 0.553 | 0.403 | 0.372 | 0.515 | 0.408 | 1.04 | 0.879 | 0.807 | 0.653 | 0.237 | 0.505 | 0.525 | 0.514 | 0.63 | 0.358 | 0.891 | 0.725 | 0.557 | 0.555 | 0.487
13 | SK-MES-1 | 0.541 | 0.532 | 0.518 | 0.471 | 0.307 | 0.956 | 0.859 | 0.78 | 0.973 | 0.644 | 0.732 | 0.593 | 0.613 | 0.648 | 0.363 | 1.28 | 1.18 | 0.914 | 1.09 | 0.351
14 | SW 1573 | 0.595 | 0.528 | 0.552 | 0.497 | 0.318 | 0.934 | 0.64 | 0.723 | 0.794 | 0.661 | 0.487 | 0.212 | 0.308 | 0.394 | 0.144 | 0.964 | 0.689 | – | 0.772 | 0.521
